Laboratory results taken from US20250051355A1, “COMPOUNDS, COMPOSITIONS, AND METHODS” (ACONCAGUA BIO, INC., priority 2023, published 2025).

Key:
[1] = target: human calcitonin receptor (CTR) and RAMP3 (AMY3) (Homo sapiens, UniProt O60896+P30988); assay: Amylin Receptor cAMP Assay II; format: cell-based; settings: COS-7/AMY3 cells, cAMP dynamic 2 kit, read-out: Amylin Receptor cAMP Stimulation Activity: EC50
From the text: Amylin Receptor cAMPAssay II
AMYRs are heterodimers of the class B calcitonin (CT) G-protein-coupled receptor (CTR) and receptor activity-modifying proteins (RAMPs). All three RAMPs can interact with the CTR and form AMY1, AMY2, AMY3 with RAMP1, RAMP2 and RAMP3, respectively. Like other class B1 GPCRs, the CT receptor family is canonically coupled to Gs-mediated cAMP production, and measurement of cAMP accumulation has been the primary assay used to determine peptide selectivity and potency.
(§1) To optimize functional activity directed toward Gas coupling, COS-7 cells were stably transfected with human calcitonin receptor (CTR) and RAMP3, simultaneously. 100×concentration of compound working solutions were prepared with 4-fold serial dilution in 384-well Echo LDV plate (Labcyte, Cat #LP-0200-BC). 200 nL/well 100×concentration of compound working solutions were moved to 384-well white microplate (Perkin Elmer, Cat #6007680) using Labcyte ECHO550. […] cells/mL COS-7/AMY3 cell suspensions prepared with assay buffer [HBSS containing 20 mM HEPES (Gibco, Cat #15630-080), 0.5 mM IBMX (Sigma, Cat #15879) and 0.1% Casein (Sigma, Cat #C4765)], 20 μL cell suspensions were added to each well of previous generated assay plate which already contains 200 nL compound at 100×concentration using ThermoFisher Multidrop Combi (2000 cells/well). Seal the plate and incubate at 37° C. with 5% CO2 for 30 min.
(§2) After incubation, the cAMP assay signal was generated using cAMP dynamic 2 kit (Revvity, Cat #62AM4PEC). 10 μL cAMP-d2 working solution was added to each well, followed by 10 μL Anti-cAMP antibody-cryptate working solution which was added to each well using CERTUS FLEX LIQUID DISPENSER The samples were then incubated at room temperature for 1 hour protected from light. the fluorescence was read at 665 and 615 nm with Reader PerkinElmer EnVision 2105.

[2] = target: T1, human calcitonin receptor (CTR) (Homo sapiens, UniProt P30988); assay: Calcitonin receptor (CTR) cAMP Assay; format: cell-based; settings: COS7-human CTR Clone #2 cells, cAMP dynamic 2 kit; read-out: Calcitonin Receptor cAMP Stimulation Activity: EC50
T1 construct: expressed in transfected cells; host or cells: COS-7 (COS7-human CTR Clone #2)
T1 sequence (P30988 25-474): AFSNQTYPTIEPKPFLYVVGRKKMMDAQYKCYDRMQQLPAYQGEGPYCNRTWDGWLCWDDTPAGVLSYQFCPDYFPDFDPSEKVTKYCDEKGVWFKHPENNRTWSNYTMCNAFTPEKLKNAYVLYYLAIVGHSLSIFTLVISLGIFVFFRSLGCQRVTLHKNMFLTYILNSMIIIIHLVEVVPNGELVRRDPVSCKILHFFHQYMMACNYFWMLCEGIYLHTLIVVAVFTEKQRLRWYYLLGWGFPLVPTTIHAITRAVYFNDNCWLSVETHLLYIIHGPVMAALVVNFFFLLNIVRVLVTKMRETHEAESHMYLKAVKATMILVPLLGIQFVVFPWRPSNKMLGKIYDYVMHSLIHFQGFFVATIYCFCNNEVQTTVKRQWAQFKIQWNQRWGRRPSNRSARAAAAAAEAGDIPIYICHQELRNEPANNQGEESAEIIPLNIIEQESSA
From the text: Calcitonin receptor (CTR) cAMPAssay
The calcitonin receptor (CTR) belongs to the subfamily of GPCRs known as the secretin or ‘B’ family of GPCRs. Like other class B1 GPCRs, the CT receptor family is canonically coupled to Gs-mediated cAMP production, and measurement of cAMP accumulation has been the primary assay used to determine peptide selectivity and potency.
as §1, with “to create COS7-human CTR Clone #2 stable cell line. 100× concentration” for “and RAMP3, simultaneously. 100×concentration”, “COS7-human CTR Clone #2” for “COS-7/AMY3”
as §2, with “#62AM4PEC). […] cAMP-d2 working” for “#62AM4PEC). 10 μL cAMP-d2 working”

Chain of human calcitonin receptor (CTR) and RAMP3 (AMY3) (O60896 24-148, one chain of several): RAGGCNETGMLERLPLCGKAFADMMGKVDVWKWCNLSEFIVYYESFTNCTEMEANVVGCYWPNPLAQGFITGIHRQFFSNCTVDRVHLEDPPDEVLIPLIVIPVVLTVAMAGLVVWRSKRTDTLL

SMILES | EC50 [1] [nM] | EC50 [2] [nM]
Cc1nnc(-c2c(CCC3CCOCC3)nc3c(c2-c2cc4ncnc(N[C@@H]5CCc6ncccc65)c4s2)S(=O)(=O)CC3C(C)C)o1 (stereo partly drawn) [Compound 89, N—(R)-4-aza-1-indanyl(2-(3-isopropyl-6-(5-methyl-1,3,4-oxadiazol-2-yl)-1,1-dioxo-5-[2-(tetrahydro-2H-pyran-4-yl)ethyl]-1λ^6-thia-4-aza-7-indanyl}-1-thia-4,6-diaza-7-indenyl)amine] | 587 | 42.9
Cc1nnc(-c2c(CCC3CCOCC3)nc3c(c2-c2cc4ccnc(N[C@@H]5CCc6ncccc65)c4o2)S(=O)(=O)CC3C(C)C)o1 (stereo partly drawn) [Compound 90, N—(R)-4-aza-1-indanyl(2-(3-isopropyl-6-(5-methyl-1,3,4-oxadiazol-2-yl)-1,1-dioxo-5-[2-(tetrahydro-2H-pyran-4-yl)ethyl]-1λ^6-thia-4-aza-7-indanyl}-1-oxa-6-aza-7-indenyl)amine] | 1580 | 998
Cc1cc(-c2c(CCC3CCOCC3)nc3c(c2-c2cc4ccnc(N[C@@H]5CCc6ncccc65)c4s2)S(=O)(=O)CC3C(C)C)ccn1 (stereo partly drawn) [Compound 91, 7-(7-(((R)-6,7-dihydro-5H-cyclopenta[b]pyridin-5-yl)amino)thieno[2,3-c]pyridin-2-yl)-3-isopropyl-6-(2-methylpyridin-4-yl)-5-(2-(tetrahydro-2H-pyran-4-yl)ethyl)-2,3-dihydrothieno[3,2-b]pyridine 1,1-dioxide] | 499 | 45.2
Cc1cc(-c2c(CCC3CCOCC3)nc3c(c2-c2cc4ccnc(N[C@@H]5CCc6ncccc65)c4s2)S(=O)(=O)CC3C(C)C)ncn1 (stereo partly drawn) [Compound 92, N—(R)-4-aza-1-indanyl(2-(3-isopropyl-6-(6-methyl-4-pyrimidinyl)-1,1-dioxo-5-[2-(tetrahydro-2H-pyran-4-yl)ethyl]-1λ^6-thia-4-aza-7-indanyl}-1-thia-6-aza-7-indenyl)amine] | 540 | 117
Cc1nnc(-c2c(CCC3CCOCC3)nc3c(c2-c2cc4ccnc(N[C@H](C)c5cncc(F)c5)c4s2)S(=O)(=O)CC3C(C)C)o1 (stereo partly drawn) [Compound 93, [(R)-1-(5-fluoro-3-pyridyl)ethyl](2-(3-isopropyl-6-(5-methyl-1,3,4-oxadiazol-2-yl)-1,1-dioxo-5-[2-(tetrahydro-2H-pyran-4-yl)ethyl]-1λ^6-thia-4-aza-7-indanyl}-1-thia-6-aza-7-indenyl)amine] | 471 | 42.2
Cc1nnc(-c2c(CCC3CCOCC3)nc3c(c2-c2cc4ccnc(N[C@@H]5CCc6ncccc65)c4s2)S(=O)(=O)CC3C)o1 (stereo partly drawn) [Compound 94, N—(R)-4-aza-1-indanyl(2-(3-methyl-6-(5-methyl-1,3,4-oxadiazol-2-yl)-1,1-dioxo-5-[2-(tetrahydro-2H-pyran-4-yl)ethyl]-1λ^6-thia-4-aza-7-indanyl}-1-thia-6-aza-7-indenyl)amine] | 1150 | 179
Cc1nnc(-c2c(CCC3CCOCC3)nc3c(c2-c2cc4ccnc(N[C@@H]5CCc6ncccc65)c4s2)C(=O)N2CCOC[C@@H]32)o1 [Compound 95, (R)-4-(7-(((R)-6,7-dihydro-5H-cyclopenta[b]pyridin-5-yl)amino)thieno[2,3-c]pyridin-2-yl)-3-(5-methyl-1,3,4-oxadiazol-2-yl)-2-(2-(tetrahydro-2H-pyran-4-yl)ethyl)-7,8,10,10a-tetrahydro-5H-pyrido[2′,3′:3,4]pyrrolo[2,1-c][1,4]oxazin-5-one] | 857 | 35.6
Cc1nnc(-c2c(CC3CCOCC3)nc3c(c2-c2cc4ccnc(N[C@@H]5CCc6ncccc65)c4s2)S(=O)(=O)CC3C(C)C)o1 (stereo partly drawn) [Compound 96, N—(R)-4-aza-1-indanyl(2-(3-isopropyl-6-(5-methyl-1,3,4-oxadiazol-2-yl)-1,1-dioxo-5-[(tetrahydro-2H-pyran-4-yl)methyl]-1λ^6-thia-4-aza-7-indanyl}-1-thia-6-aza-7-indenyl)amine] | 1300 | 226
COc1noc(-c2c(CCc3ccc(F)cc3)nc3c(c2-c2cc4ccnc(N[C@@H]5CCc6c(OC)cccc65)c4s2)C(=O)N2CCC[C@@H]32)n1 [Compound 97, (S)-2-(4-fluorophenethyl)-3-(3-methoxy-1,2,4-oxadiazol-5-yl)-4-(7-(((R)-4-methoxy-2,3-dihydro-1H-inden-1-yl)amino)thieno[2,3-c]pyridin-2-yl)-7,8,9,9a-tetrahydro-5H-pyrido[2,3-a]pyrrolizin-5-one] | 318 | 20.7
Cc1nnc(-c2c(CCC3CC(C)OC(C)C3)nc3c(c2-c2cc4ncnc(N[C@@H]5CCc6ncccc65)c4s2)S(=O)(=O)CC3C(C)C)o1 (stereo partly drawn) [Compound 98, N—(R)-4-aza-1-indanyl(2-(5-[2-(2,6-dimethyltetrahydro-2H-pyran-4-yl)ethyl]-3-isopropyl-6-(5-methyl-1,3,4-oxadiazol-2-yl)-1,1-dioxo-1λ^8-thia-4-aza-7-indanyl}-1-thia-4,6-diaza-7-indenyl)amine] | 352 | 39.2
Cc1nnc(-c2c(CCC3CCOC3)nc3c(c2-c2cc4ncnc(N[C@@H]5CCc6ncccc65)c4s2)S(=O)(=O)CC3C(C)C)o1 (stereo partly drawn) [Compound 99, N—(R)-4-aza-1-indanyl(2-(3-isopropyl-6-(5-methyl-1,3,4-oxadiazol-2-yl)-1,1-dioxo-5-[2-(tetrahydro-3-furyl)ethyl]-1λ^6-thia-4-aza-7-indanyl}-1-thia-4,6-diaza-7-indenyl)amine] | 1900 | 208
Cc1nnc(-c2c(CCC3CCCO3)nc3c(c2-c2cc4ncnc(N[C@@H]5CCc6ncccc65)c4s2)S(=O)(=O)CC3C(C)C)o1 (stereo partly drawn) [Compound 100, N—(R)-4-aza-1-indanyl(2-(3-isopropyl-6-(5-methyl-1,3,4-oxadiazol-2-yl)-1,1-dioxo-5-[2-(tetrahydro-2-furyl)ethyl]-1λ^6-thia-4-aza-7-indanyl}-1-thia-4,6-diaza-7-indenyl)amine] | 6180 | 184
Cc1cnc(-c2c(CCC3CCOCC3)nc3c(c2-c2ccc4c(c2)oc(=O)n4Cc2ccc(C#N)cn2)C(=O)N2CCC[C@@H]32)o1 [Compound 101] | 38.1 | 2.23
Cc1noc(-c2c(CCC3CCOCC3)nc3c(c2-c2cc4ccnc(N[C@@H]5CCc6ncccc65)c4s2)S(=O)(=O)CC3C(C)C)n1 (stereo partly drawn) [Compound 102, N—(R)-4-aza-1-indanyl(2-(3-isopropyl-6-(3-methyl-1,2,4-oxadiazol-5-yl)-1,1-dioxo-5-[2-(tetrahydro-2H-pyran-4-yl)ethyl]-1λ^6-thia-4-aza-7-indanyl}-1-thia-6-aza-7-indenyl)amine] | 265 | 50
